From US20080182806A1, “USE OF ACETYLATED OR ESTERIFICATED AZACYTIDINE, DECITABINE, OR OTHER NUCLEOSIDE ANALOGS AS ORAL AGENTS FOR THE TREATMENT OF TUMORS OR OTHER DYSPLASTIC SYNDROMES SENSITIVE TO HYPOMETHYLATING AGENTS” (Nevada Cancer Institute, priority 2007, published 2008)

Key:
[1] = Pharmacokinetics and metabolism of TAC in mice (plasma LC/MS/MS); format: in vivo; settings: female, C57/BL6, mouse
Method: The title product and its active metabolite azacytidine (ACT) were then subjected to LC/MS/MS analysis using the following protocol. Stock solutions were prepared by weighing out 5-10 mg of TAC which was dissolves in methanol to a final concentration of about 0.5 mg/ml. The solution was labeled as “TAC Stock.” 2-3 mg of ACT were then weighed and dissolved in methanol to a final concentration of about 0.2 mg/ml. The solution was labeled as “ACT Stock.” Finally, the TAC and ACT stocks were diluted to a concentration of about 50 μg/ml in methanol, and labeled as “ACT/TAC Stock.” All solutions were stored at −20° C. […]
Samples were then initially prepared as follows. A measured aliquot of the acetonitrile extracted plasma sample was removed and placed into a 10×75 mm disposable glass test tube, followed by evaporating liquid down to approximately 50 μl under nitrogen at 37° C., diluting with 1 ml 2% phosphoric acid, and vortexing for 10 seconds at 3,000 rpm.
The samples were then analyzed by the SPE, HPLC and MS/MS methods. […]
Individual concentration-time data were analyzed using noncompartmental methods using WinNonlin Professional (Pharsight, Mountain View, Calif.). […] The terminal rate constant (λz) is determined from the slope of the terminal phase of the plasma concentration-time curve using uniform weight. The terminal half-life (T1/2) was calculated as 0.693 divided by λz. […]

global DNA methylation = experiment: Global DNA methylation in mouse tissues (Epigentek Methylamp Global DNA Methylation Quantification Kit); format: in vivo, mice; settings: for effect on global DNA methylation in the kidneys after 48 hours / reduction in global DNA methylation in the kidneys: 38 mg/kg TAC p.o. or 25 mg/kg ACT i.v.; for reduction in global DNA methylation in the kidneys: within 24 hours
Method: The pharmacodynamic effect of TAC and ACT was determined at 24 and 48 hours following drug administration after the female C57/BL6 mice were euthanized, their tissues rapidly harvested, snap-frozen in liquid nitrogen, and stored at −80° C. The effect on methylation was determined by using the Epigentek Methylamp™ Global DNA Methylation Quantification Kit. Isolated genomic DNA from mouse tissues 24 or 48 hours after treatment with 25 mg/kg ACT i.v. and 38 mg/kg TAC p.o., methylation status was determined using 100 ng of each gDNA sample.

[2] = tested on: myelodysplastic syndromes; settings: 75 mg/m^2 subcutaneously daily for 7 days every 4 weeks, cited from earlier work
Lymphoid leukemia L1210 = experiment: Survival of leukemic BDF1 mice inoculated i.p. with L1210 cells; format: in vivo
Method: Lymphoid leukemia L1210 was carried in BDF1 mice by weekly i.p. passages. Ascites fluid was aspirated from a donor mouse and sampled, and an aliquot was carefully diluted and counted in a hemocytometer. The original suspension of cells was then diluted appropriately in […] medium to 1×10^6 cells/ml. and injected i.p. (1×10^5 cells/0.1 ml/mouse) into recipient BDF1 mice.
A daily oral administration injection of TAC (38 mg/kg) diluted in PBS was given to leukemic BDF1 mice by oral gavage starting 24 hours from the inoculation of L1210 cells for a total of 5 days. A group of untreated leukemic mice of the same strain, sex, age, and weight served as controls.

[3] = tested on: myelodysplastic syndromes; settings: 15 mg/m^2 intravenously over 4 hours three times a day for 3 days; cited from earlier work

In the case of `Nc1ncn([C@@H]2O[C@H](CO)[C@@H](O)[C@H]2O)c(=O)n1` [ACT, 4-amino-1-β-D-ribofuranosyl-1,3,5-triazin-2(1H)-one], the half-life ([1]; iv, 25 mg/kg, azacytidine administered i.v., mice plasma) was 4 to 5 h, the “effect on global DNA methylation in the kidneys after 48 hours” value (global DNA methylation) was “subsided” and the “reduction in global DNA methylation in the kidneys” value (global DNA methylation) was 50%. The “mean time to response” value [2] was “six”, the response ([2]; higher-risk groups) was 61% and the response rate ([2]; lower-risk patients with refractory anemia) was 60%.
With `CC(=O)OC[C@H]1O[C@@H](n2cnc(N)nc2=O)[C@H](OC(C)=O)[C@@H]1OC(C)=O` [TAC, 2′,3′,5′-triacetyl-5-azacytidine] the concentration at 4 h ([1]; plasma, by 4 hours after oral administration of 38 mg/kg TAC, read-out: TAC plasma concentration (below the limit of detection)) was < 30 ng/mL, the “effect on global DNA methylation in the kidneys after 48 hours” value (global DNA methylation) was “subsided” and the “reduction in global DNA methylation in the kidneys” value (global DNA methylation) was 50%. For the same compound, the “further decrease in methylation in spleen compared to untreated tissue” value (global DNA methylation; spleen, later time point, oral TAC 38 mg/kg) was 40%, the median survival time (Lymphoid leukemia L1210; TAC 38 mg/kg daily by oral gavage for 5 days, starting 24 hours after L1210 inoculation) was 14 days and the increased lifespan (Lymphoid leukemia L1210; TAC 38 mg/kg daily oral for 5 days versus untreated control group) was 55%.
In the case of `Nc1ncn([C@H]2C[C@H](O)[C@@H](CO)O2)c(=O)n1` [decitabine, 4-amino-1-(2-deoxy-b-D-erythro-pentofuranosyl)-1,3,5-triazin-2(1H)-one], the overall response rate [3] is listed as 49%.
